PubChem BioAssay (NCI)
Where “and” joins values, the source holds several entries; their conditions need not be identical. Equal entries are not always repeated.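 How tested: cells in 96-well plates exposed to compound for 48 hours at five concentrations. GI50 marks 50% less growth. TGI denotes the concentration required for complete inhibition of growth.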

What was measured:
Assay in all cases: inhibition of tumour cell growth, NCI panel, 48 h
COLO 205 colon = system: COLO 205 colon
RXF 393 renal = system: RXF 393 renal
SF-539 CNS = system: SF-539 CNS
A498 renal = system: A498 renal
CAKI-1 renal = system: CAKI-1 renal
TK-10 renal = system: TK-10 renal
HCT-116 colon = system: HCT-116 colon
LOX IMVI melanoma = system: LOX IMVI melanoma
CCRF-CEM leukemia = system: CCRF-CEM leukemia
UACC-62 melanoma = system: UACC-62 melanoma

Row | SMILES | GI50 (COLO 205 colon) [nM] | TGI (COLO 205 colon) [µM] | GI50 (RXF 393 renal) [µM] | TGI (RXF 393 renal) | GI50 (SF-539 CNS) [nM] | TGI (SF-539 CNS) | GI50 (A498 renal) [nM] | TGI (A498 renal) | GI50 (CAKI-1 renal) [µM] | TGI (CAKI-1 renal) | GI50 (TK-10 renal) [µM] | TGI (TK-10 renal) [µM] | GI50 (HCT-116 colon) [nM] | TGI (HCT-116 colon) | GI50 (LOX IMVI melanoma) [nM] | TGI (LOX IMVI melanoma) | GI50 (CCRF-CEM leukemia) [nM] | TGI (CCRF-CEM leukemia) [µM] | GI50 (UACC-62 melanoma) [nM] | TGI (UACC-62 melanoma)
1 | Cc1cc(C)c(O)c(CNCCCNCc2cc(C)cc(C)c2O)c1 | 1890 | 3.89 | 1.93 | 4.24 µM | 1590 | 3.11 µM | 1710 | 9.24 µM | 5.45 | 18.7 µM | 6.16 | 20.6 | 2990 | 9.49 µM | 1520 | 2.88 µM | 3820 | 15.3 | 1890 | 3.43 µM
2 | C=C(C)[C@@H]1CC[C@]2(CN)CC[C@]3(C)[C@H](CC[C@@H]4[C@@]5(C)CCC(N)[C@@](C)(CO)[C@@H]5CC[C@]43C)[C@@H]12 (stereo partly drawn) | 1750 | 3.38 | 1.28 | 2.59 µM | 1790 | 3.26 µM | 1440 | 2.79 µM | 1.76 | 3.2 µM | 1.75 | 3.22 | 1610 | 3.05 µM | 1640 | 3.1 µM | 1710 | 3.65 | 1850 | 3.33 µM
3 | COCC(=O)NC/C=C/c1ccc2ncnc(Nc3ccc(Oc4ccc(C)nc4)c(C)c3)c2c1 | 6000 | 25.6 | 13.9 | 36.3 µM | 15100 | 31.7 µM | 4130 | 32.6 µM | 3.31 | 49.5 µM | 7.52 | 53.9 | 13700 | 30.9 µM | 15000 | 33.8 µM | 14000 | > 79.9 | 10600 | 34 µM
4 | CC(=Nc1ccccc1)C1=C(O)C(Cc2ccc(F)cc2)NC1=O (stereo not drawn) | 421 | 3.21 | 0.339 | 1.74 µM | 1360 | 12.1 µM | 444 | 5.04 µM | 2.9 | > 100 µM | 2.1 | > 100 | 490 | > 100 µM | 619 | > 100 µM | 1810 | > 100 | 664 | > 100 µM
5 | C[C@H](C(O)CC(=O)C(C)(C)O)[C@H]1CC[C@@]2(C)[C@@H]3CC[C@H]4C(C)(C)[C@@H](OC5OC(COC6OC(CO)C(O)C(O)C6O)C(O)C(O)C5O)CC[C@]4(C)C3=CC[C@]12C (stereo partly drawn) | – | > 100 | – | > 100 µM | – | > 100 µM | – | > 100 µM | – | > 100 µM | – | > 100 | – | > 100 µM | – | > 100 µM | – | > 100 | – | > 100 µM
6 | COC(=O)c1ccc(/C=C/S(=O)(=O)c2ccccc2)cc1 | – | > 100 | – | > 100 µM | – | > 100 µM | – | > 100 µM | – | > 100 µM | – | > 100 | – | > 100 µM | – | > 100 µM | – | > 100 | – | > 100 µM
7 | CCC1(N)C(=O)OCc2c1cc1n(c2=O)Cc2cc3ccccc3nc2-1 (stereo not drawn) | 16700 | > 100 | 15.4 | 63.1 µM and > 100 µM | 2930 | 11.8 µM and > 47.9 µM | 10600 | 34.4 µM and 46.2 µM | 3.26 | > 52.2 µM and 45.9 µM | 51 | > 100 | 6510 | 23.4 µM and > 100 µM | – | 28.2 µM and 33.6 µM | 1960 | – | 3890 | 20.5 µM and 14.1 µM
8 | Cc1ccc(-n2c3c(c4c(CN)c(O)ccc42)CCc2ccccc2C3=O)cc1 | 19500 | 47 | 17 | 36.7 µM | 16600 | 36.1 µM | 4170 | 16.8 µM | 13 | 26.6 µM | 13.3 | 26.3 | 9240 | 21.4 µM | 16300 | 32.2 µM | 2660 | 8.44 | 14000 | 27 µM
9 | O=C(CC1SC(=Nc2ccccc2Cl)NC1=O)Nc1ccc(Cl)cc1 (stereo not drawn) | – | 48.7 | – | > 100 µM | – | > 100 µM | – | > 100 µM | – | > 100 µM | – | > 100 | – | > 100 µM | – | > 100 µM | – | > 100 | – | > 100 µM
10 | Cc1ccccc1C[P+](c1ccccc1)(c1ccccc1)c1ccccc1 | 1160 | 3.28 | 4.5 | 37.1 µM | 2340 | > 100 µM | 1930 | 12.7 µM | 23.6 | > 100 µM | 1.2 | 30.2 | 896 | > 100 µM | 1090 | > 100 µM | 2040 | > 100 | 757 | 31.6 µM
11 | C/C=C(\C)C(=O)N1c2ccccc2CC1c1c(C)[nH]c2ccccc12 (stereo not drawn) | – | 74.5 | – | > 100 µM | – | > 100 µM | – | > 100 µM | – | > 100 µM | – | > 100 | – | > 100 µM | – | > 100 µM | – | > 100 | – | > 100 µM
12 | O=S(=O)(NCCNc1cc(-c2cn(-c3ccccc3)nc2-c2cccc(O)c2)ccn1)c1ccc(Br)cc1 | 1860 | 3.81 | 2.38 | 6.96 µM | 1810 | 4.24 µM | 1450 | 5.47 µM | 3.42 | 20.4 µM | 2.78 | 9.65 | 2440 | 6.48 µM | 1710 | 3.23 µM | 2100 | 6.06 | 1810 | 3.87 µM
13 | COC(=O)[C@H](Cc1cn(C)cn1)NC(=O)[C@@H](NC(=O)Nc1cc(C(F)(F)F)cc(C(F)(F)F)c1)C(C)(C)C | > 10000 | > 10 | > 10 | > 10 µM | > 10000 | > 10 µM | > 10000 | > 10 µM | > 10 | > 10 µM | > 10 | > 10 | > 10000 | > 10 µM | > 10000 | > 10 µM | > 10000 | > 10 | > 10000 | > 10 µM
14 | C#CCN(Cc1nc2cc(C(F)(F)F)ccc2nc1-c1ccccc1)c1ccc(F)cc1 | 13800 | 50.5 | 41 | > 100 µM | 37400 | > 100 µM | 38000 | 92.8 µM | 62.2 | 92.2 µM | 19.2 | 59 | 20800 | > 100 µM | 30500 | 97.8 µM | 27100 | > 100 | 25500 | > 100 µM
15 | CC(=O)OC1(C#N)CC2OC1C1N=NN(C(=O)OC(C)(C)C)C21 (stereo not drawn) | – | > 100 | – | > 31.6 µM | – | > 100 µM | – | > 100 µM | – | > 31.6 µM | – | > 100 | – | 15.5 µM | – | > 31.6 µM | – | 83.8 | – | 42.2 µM
16 | Cc1ccc2c(c1)-c1oc(=O)c(-c3cc4ccccc4oc3=O)cc1C(O)O2 (stereo not drawn) | 18700 | 41.7 | 12.8 | 48.2 µM | 13300 | 26 µM | 16200 | 30.3 µM | 20.5 | 46.7 µM | 16.3 | 34.9 | 18000 | 33 µM | 17600 | 31.4 µM | 42200 | > 100 | 17400 | 35.6 µM
17 | CC(C)=CCc1c(O)c(C(=O)CC(C)C)c(O)c2c(-c3ccccc3)cc(=O)oc12 | 9750 | 19 | 15.8 | > 50 µM | 5820 | 22.5 µM | 7400 | 28.8 µM | 11 | 48.3 µM | 9.98 | > 50 | 7270 | 43.3 µM | 15600 | > 50 µM | 5110 | > 50 | 2200 | 13.5 µM
18 | COc1ccc(-c2cc(-c3ccc(Cl)cc3)nc(SCCCCCCC(=O)NO)n2)cc1 | 1880 | 11.5 | 1.27 | 3.69 µM | 1630 | 6.44 µM | 1280 | 3.8 µM | 1.32 | 7.47 µM | 2.12 | > 50 | 1350 | 7.16 µM | 1220 | 3.05 µM | 861 | 14.4 | 1130 | 3.51 µM
19 | COc1cc(OC)cc(C(=O)Cc2c(C(=O)c3ccccc3)c3ccccc3n2C(=O)c2ccccc2)c1 | – | 93.4 | – | > 100 µM | – | > 100 µM | – | 92.5 µM | – | > 100 µM | – | 98.3 | – | > 100 µM | – | > 100 µM | – | > 100 | – | > 100 µM
20 | COC(=O)CCCNC(=O)C(=O)c1c(O)c(O)c(C(C)C)c2cc(C)c(-c3c(C)cc4c(C(C)C)c(O)c(O)c(C(=O)C(=O)NCCCC(=O)OC)c4c3O)c(O)c12 | 382 | 2.03 | 0.651 | 5 µM | 997 | 5.17 µM | 1360 | 14.3 µM | 1.51 | > 32.5 µM | 0.34 | 2.73 | 156 | 2.31 µM | 537 | 1.48 µM | 331 | > 32.5 | 657 | 2.07 µM
